According to patent publication US10174035B2, “6-morpholinyl-2-pyrazolyl-9H-purine derivatives and their use as PI3K inhibitors” (Daiichi Sankyo Company, Limited, priority 2015, dated 2019):

Biological target: recombinant PI3K δ enzyme (Homo sapiens (Human), UniProt O00329)
Test: In vitro enzyme assay (Kinase-Glo luminescent kinase assay), PI3Kδ
Type: biochemical
Procedure, shortened: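 Each recombinant human PI3K isoform at 2.29 μg/mL with 60 μM PIP2 and 10 μM ATP in HEPES pH 7.4, NaCl, CHAPS, MgCl2, DTT, 2 hours at room temperature. Remaining ATP read by Kinase-Glo luminescence relative to no-enzyme blanks.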

recombinant PI3K δ enzyme, sequence (O00329 whole entry, species assumed): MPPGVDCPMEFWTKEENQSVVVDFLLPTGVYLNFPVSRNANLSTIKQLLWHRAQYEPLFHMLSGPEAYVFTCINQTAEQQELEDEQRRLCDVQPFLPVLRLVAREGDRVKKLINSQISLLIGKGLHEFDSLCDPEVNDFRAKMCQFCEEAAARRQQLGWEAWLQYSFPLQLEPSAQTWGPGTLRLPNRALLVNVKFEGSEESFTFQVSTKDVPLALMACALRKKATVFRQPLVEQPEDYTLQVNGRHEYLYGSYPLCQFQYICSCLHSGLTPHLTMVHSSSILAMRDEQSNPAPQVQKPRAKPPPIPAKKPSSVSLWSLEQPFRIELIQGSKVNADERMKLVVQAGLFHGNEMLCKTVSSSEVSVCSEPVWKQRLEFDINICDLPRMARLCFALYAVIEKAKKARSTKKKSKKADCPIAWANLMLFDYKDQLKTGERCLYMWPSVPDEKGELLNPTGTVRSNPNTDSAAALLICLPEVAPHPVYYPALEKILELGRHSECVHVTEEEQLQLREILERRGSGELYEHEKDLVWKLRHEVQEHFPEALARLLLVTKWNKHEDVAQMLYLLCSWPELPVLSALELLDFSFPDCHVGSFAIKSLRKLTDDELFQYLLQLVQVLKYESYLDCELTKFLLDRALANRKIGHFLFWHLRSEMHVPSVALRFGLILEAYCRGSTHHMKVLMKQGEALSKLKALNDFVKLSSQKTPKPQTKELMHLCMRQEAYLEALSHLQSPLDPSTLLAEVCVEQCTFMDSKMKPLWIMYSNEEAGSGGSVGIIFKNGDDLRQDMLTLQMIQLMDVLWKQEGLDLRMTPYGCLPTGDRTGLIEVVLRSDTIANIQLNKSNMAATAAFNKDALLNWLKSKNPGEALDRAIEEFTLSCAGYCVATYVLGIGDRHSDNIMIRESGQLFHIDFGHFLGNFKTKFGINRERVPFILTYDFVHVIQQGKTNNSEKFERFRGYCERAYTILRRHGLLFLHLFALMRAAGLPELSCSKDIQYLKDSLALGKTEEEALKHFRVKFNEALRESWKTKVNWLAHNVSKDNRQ
recombinant PI3K δ enzyme, sequence (P27986 whole entry partner, species assumed): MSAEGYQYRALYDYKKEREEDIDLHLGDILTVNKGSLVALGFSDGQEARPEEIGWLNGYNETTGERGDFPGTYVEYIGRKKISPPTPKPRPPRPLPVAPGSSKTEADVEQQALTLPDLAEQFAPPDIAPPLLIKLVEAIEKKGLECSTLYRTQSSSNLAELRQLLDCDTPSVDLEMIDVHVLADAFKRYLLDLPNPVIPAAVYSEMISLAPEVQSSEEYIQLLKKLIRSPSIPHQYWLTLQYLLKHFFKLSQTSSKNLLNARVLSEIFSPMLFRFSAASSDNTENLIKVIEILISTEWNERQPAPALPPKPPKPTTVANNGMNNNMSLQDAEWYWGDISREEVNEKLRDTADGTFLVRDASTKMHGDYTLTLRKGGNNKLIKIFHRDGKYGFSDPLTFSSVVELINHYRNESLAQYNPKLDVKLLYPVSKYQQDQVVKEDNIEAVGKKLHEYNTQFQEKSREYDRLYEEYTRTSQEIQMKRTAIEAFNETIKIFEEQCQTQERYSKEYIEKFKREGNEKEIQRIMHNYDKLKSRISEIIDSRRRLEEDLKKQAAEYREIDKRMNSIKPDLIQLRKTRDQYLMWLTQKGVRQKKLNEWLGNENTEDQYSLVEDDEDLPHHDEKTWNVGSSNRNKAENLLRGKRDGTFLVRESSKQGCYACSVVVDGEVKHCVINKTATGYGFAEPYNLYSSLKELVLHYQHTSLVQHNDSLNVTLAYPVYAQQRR

| SMILES | IC50 [nM] |
| --- | --- |
| Cc1nn(C)cc1-c1nc2[nH]c(C(=O)N3CCC(N4CCOCC4)CC3)nc2c(N2CCOCC2)c1C [compound 89, [5-(1,3-Dimethyl-1H-pyrazol-4-yl)-6-methyl-7-(morpholin-4-yl)-3H-imidazo[4,5-b]pyridin-2-yl][4-(morpholin-4-yl)piperidin-1-yl]methanone] | 46 |
| Cc1c(-c2cnn(C)c2)nc2[nH]c(C(=O)N3CCC(N4CCOCC4)CC3)nc2c1N1CCOCC1 [compound 90, [6-Methyl-5-(1-methyl-1H-pyrazol-4-yl)-7-(morpholin-4-yl)-3H-imidazo[4,5-b]pyridin-2-yl][4-(morpholin-4-yl)piperidin-1-yl]methanone] | 188 |
| Cc1nn(C)cc1-c1nc2[nH]c(C(=O)N3CCC(N4CCOCC4)CC3)nc2c(N2CCOCC2)c1Cl [compound 91, [6-Chloro-5-(1,3-dimethyl-1H-pyrazol-4-yl)-7-(morpholin-4-yl)-3H-imidazo[4,5-b]pyridin-2-yl][4-(morpholin-4-yl)piperidin-1-yl]methanone] | 31 |
| Cn1cc(-c2nc3[nH]c(C(=O)N4CCC(N5CCOCC5)CC4)nc3c(N3CCOCC3)c2Cl)cn1 [compound 92, [6-Chloro-5-(1-methyl-1H-pyrazol-4-yl)-7-(morpholin-4-yl)-3H-imidazo[4,5-b]pyridin-2-yl][4-(morpholin-4-yl)piperidin-1-yl]methanone] | 163 |
| Cc1c(-c2nc3[nH]c(C(=O)N4CCC(N5CCOCC5)CC4)nc3c(N3CCOCC3)c2F)cnn1C [compound 95, [5-(1,5-Dimethyl-1H-pyrazol-4-yl)-6-fluoro-7-(morpholin-4-yl)-3H-imidazo[4,5-b]pyridin-2-yl][4-(morpholin-4-yl)piperidin-1-yl]methanone] | 202 |
| CN(C)C1CCN(C(=O)c2nc3c(N4CCOCC4)cc(-c4cnn(C)c4)nc3n2C)CC1 [compound 100, [4-(Dimethylamino)piperidin-1-yl][3-methyl-5-(1-methyl-1H-pyrazol-4-yl)-7-(morpholin-4-yl)-3H-imidazo[4,5-b]pyridin-2-yl]methanone] | 64 |
| CN(C)C1CCN(C(=O)c2nc3c(N4CCOCC4)cc(-c4cnn(C)c4)nc3[nH]2)CC1 [compound 101, [4-(Dimethylamino)piperidin-1-yl][5-(1-methyl-1H-pyrazol-4-yl)-7-(morpholin-4-yl)-3H-imidazo[4,5-b]pyridin-2-yl]methanone] | 41 |
| Cn1cc(-c2cc(N3CCOCC3)c3nc(C(=O)NCCN4CCOCC4)[nH]c3n2)cn1 [compound 103, 5-(1-Methyl-1H-pyrazol-4-yl)-7-(morpholin-4-yl)-N-[2-(morpholin-4-yl)ethyl]-3H-imidazo[4,5-b]pyridine-2-carboxamide] | 147 |
| Cc1nn(C)cc1-c1cc(N2CCOCC2)c2nc(C(=O)N3CCC(N4CCOCC4)CC3)n(C)c2n1 [compound 104, [5-(1,3-Dimethyl-1H-pyrazol-4-yl)-3-methyl-7-(morpholin-4-yl)-3H-imidazo[4,5-b]pyridin-2-yl][4-(morpholin-4-yl)piperidin-1-yl]methanone] | 22 |
| Cn1cc(-c2nc3[nH]c(C(=O)NCCN4CCOCC4)nc3c(N3CCOCC3)c2F)cn1 [compound 105, 6-Fluoro-5-(1-methyl-1H-pyrazol-4-yl)-7-(morpholin-4-yl)-N-[2-(morpholin-4-yl)ethyl]-3H-imidazo[4,5-b]pyridine-2-carboxamide] | 32 |
| Cn1cc(-c2cc(N3CCOCC3)c3nc(C(=O)N4CCC(N5CCOCC5)CC4)n(C)c3n2)cn1 [compound 106, [3-Methyl-5-(1-methyl-1-pyrazol-4-yl)-7-(morpholin-4-yl)-3H-imidazo[4,5-b]pyridin-2-yl][4-(morpholin-4-yl)piperidin-1-yl]methanone] | 30 |
| Cc1nn(C)cc1-c1nc2c(nc(C(=O)N3CCC(C(C)(C)O)CC3)n2C)c(N2CCOCC2)c1F [compound 107, [5-(1,3-Dimethyl-1H-pyrazol-4-yl)-6-fluoro-3-methyl-7-(morpholin-4-yl)-3H-imidazo[4,5-b]pyridin-2-yl][4-(2-hydroxypropan-2-yl)piperidin-1-yl]methanone] | 58 |
| Cn1cc(-c2nc3c(nc(C(=O)N4CCC5(CC4)COC5)n3C)c(N3CCOCC3)c2F)cn1 [compound 108, [6-Fluoro-3-methyl-5-(1-methyl-1-pyrazol-4-yl)-7-(morpholin-4-yl)-3H-imidazo[4,5-b]pyridin-2-yl](2-oxa-7-azaspiro[3.5]non-7-yl)methanone] | 131 |
| C[C@@H]1CN(C2CCN(C(=O)c3nc4c(N5CCOCC5)cc(-c5cnn(C)c5)nc4[nH]3)CC2)C[C@H](C)O1 [compound 109, {4-[cis-2,6-Dimethylmorpholin-4-yl]piperidin-1-yl}[5-(1-methyl-1H-pyrazol-4-yl)-7-(morpholin-4-yl)-3H-imidazo[4,5-b]pyridin-2-yl]methanone] | 19 |
| C[C@@H]1CN(C2CCN(C(=O)c3nc4c(N5CCOCC5)cc(-c5cnn(C)c5)nc4n3C)CC2)C[C@H](C)O1 [compound 110, {4-[cis-2,6-Dimethylmorpholin-4-yl]piperidin-1-yl}[3-methyl-5-(1-methyl-1H-pyrazol-4-yl)-7-(morpholin-4-yl)-3H-imidazo[4,5-b]pyridin-2-yl]methanone] | 63 |
| Cn1cc(-c2nc3c(nc(C(=O)N4CCC(N5CCOCC5)CC4)n3C)c(N3CCOCC3)c2F)cn1 [compound 111, [6-Fluoro-3-methyl-5-(1-methyl-1-pyrazol-4-yl)-7-(morpholin-4-yl)-3H-imidazo[4,5-b]pyridin-2-yl][4-(morpholin-4-yl)piperidin-1-yl]methanone] | 184 |
| Cc1nn(C)cc1-c1nc2c(nc(C(=O)N3CCC(N4C[C@@H](C)O[C@@H](C)C4)CC3)n2C)c(N2CCOCC2)c1F [compound 112, {4-[cis-2,6-Dimethylmorpholin-4-yl]piperidin-1-yl}[5-(1,3-dimethyl-1H-pyrazol-4-yl)-6-fluoro-3-methyl-7-(morpholin-4-yl)-3H-imidazo[4,5-b]pyridin-2-yl]methanone] | 15 |
| Cc1nn(C)cc1-c1cc(N2CCOCC2)c2nc(C(=O)N3CCC(N4C[C@@H](C)O[C@@H](C)C4)CC3)n(C)c2n1 [compound 114, {4-[cis-2,6-Dimethylmorpholin-4-yl]piperidin-1-yl}[5-(1,3-dimethyl-1H-pyrazol-4-yl)-3-methyl-7-(morpholin-4-yl)-3H-imidazo[4,5-b]pyridin-2-yl]methanone] | 72 |
| Cn1cc(-c2cc(N3CCOCC3)c3nc(C(=O)NCCCN4CCOCC4)[nH]c3n2)cn1 [compound 115, 5-(1-Methyl-1H-pyrazol-4-yl)-7-(morpholin-4-yl)-N-[3-(morpholin-4-yl)propyl]-3H-imidazo[4,5-b]pyridine-2-carboxamide] | 16 |
| Cn1cc(-c2cc(N3CCOCC3)c3nc(C(=O)N4CCC(C(C)(C)O)CC4)[nH]c3n2)cn1 [compound 117, [4-(2-Hydroxypropan-2-yl)piperidin-1-yl][5-(1-methyl-1H-pyrazol-4-yl)-7-(morpholin-4-yl)-3H-imidazo[4,5-b]pyridin-2-yl]methanone] | 122 |
| C[C@@H]1CN(C2CCN(C(=O)c3nc4c(N5CCOCC5)cc(-c5cn[nH]c5)nc4[nH]3)CC2)C[C@H](C)O1 [compound 118, {4-[cis-2,6-Dimethylmorpholin-4-yl]piperidin-1-yl}[7-(morpholin-4-yl)-5-(1H-pyrazol-4-yl)-3H-imidazo[4,5-b]pyridin-2-yl]methanone] | 50 |
| Cn1cc(-c2cc(N3CCOCC3)c3nc(C(=O)N4CC(N5CCOCC5)C4)[nH]c3n2)cn1 [compound 120, [5-(1-Methyl-1H-pyrazol-4-yl)-7-(morpholin-4-yl)-3H-imidazo[4,5-b]pyridin-2-yl][3-(morpholin-4-yl)azetidin-1-yl]methanone] | 10 |
| Cn1cc(-c2nc(N3CCOCC3)c3nc(C(=O)N4CCC5(CC4)CNC(=O)C5)[nH]c3n2)cn1 [compound 122, 8-{[2-(1-Methyl-1H-pyrazol-4-yl)-6-(morpholin-4-yl)-9H-purin-8-yl]carbonyl}-2,8-diazaspiro[4.5]decan-3-one] | 20 |
| O=C(c1nc2c(N3CCOCC3)c(F)c(-c3c[nH]nc3C(F)(F)F)nc2[nH]1)N1CCC(N2CCOCC2)CC1 [compound 123, {6-Fluoro-7-(morpholin-4-yl)-5-[3-(trifluoromethyl)-1H-pyrazol-4-yl]-3H-imidazo[4,5-b]pyridin-2-yl}[4-(morpholin-4-yl)piperidin-1-yl]methanone] | 4 |
| Cn1cc(-c2nc3[nH]c(C(=O)NCCCN4CCOCC4)nc3c(N3CCOCC3)c2F)cn1 [compound 124, 6-Fluoro-5-(1-methyl-1H-pyrazol-4-yl)-7-(morpholin-4-yl)-N-[3-(morpholin-4-yl)propyl]-3H-imidazo[4,5-b]pyridine-2-carboxamide] | 17 |
| O=C(c1nc2c(N3CCOCC3)c(F)c(-c3cn[nH]c3)nc2[nH]1)N1CCC(N2CCOCC2)CC1 [compound 125, [6-Fluoro-7-(morpholin-4-yl)-5-(1H-pyrazol-4-yl)-3H-imidazo[4,5-b]pyridin-2-yl][4-(morpholin-4-yl)piperidin-1-yl]methanone] | 43 |
| Cn1cc(-c2nc3[nH]c(C(=O)N4CC(N5CCOCC5)C4)nc3c(N3CCOCC3)c2F)cn1 [compound 126, [6-Fluoro-5-(1-methyl-1H-pyrazol-4-yl)-7-(morpholin-4-yl)-3H-imidazo[4,5-b]pyridin-2-yl][3-(morpholin-4-yl)azetidin-1-yl]methanone] | 25 |
| C[C@@H]1CN(C2CN(C(=O)c3nc4c(N5CCOCC5)c(F)c(-c5cnn(C)c5)nc4[nH]3)C2)C[C@H](C)O1 [compound 127, {3-[(2R,6S)-2,6-dimethylmorpholin-4-yl]azetidin-1-yl}[6-fluoro-5-(1-methyl-1H-pyrazol-4-yl)-7-(morpholin-4-yl)-3H-imidazo[4,5-b]pyridin-2-yl]methanone] | 36 |
| CN(C(=O)c1nc2c(N3CCOCC3)nc(-c3cnn(C)c3)nc2[nH]1)C1CCN(C2COC2)CC1 [compound 132, N-Methyl-2-(1-methyl-1H-pyrazol-4-yl)-6-(morpholin-4-yl)-N-[1-(oxetan-3-yl)piperidin-4-yl]-9H-purine-8-carboxamide] | 240 |
